Read-outs that look alike come from different tables or passages of the source.
Legend:
[1] = target: DENV NS5 protein (serotype 2) (Dengue virus type 2, UniProt P14340); experiment: Nucleotide analogue incorporation / RNA elongation assay; assay type: biochemical, dengue virus serotype 2; conditions: for effect on RNA synthesis after incorporation: P10/T20 primer-template, with or without GTP
[2] = Plasma pharmacokinetics in CD-1 mice after oral AT-752; conditions: male, CD-1, mouse, in vivo, 420 mg/kg
[3] = Plasma pharmacokinetics in cynomolgus monkeys after oral AT-752
[4] = Plasma pharmacokinetics in Sprague Dawley rats after oral AT-752; conditions: male, Sprague Dawley, rat, in vivo, po, 300 mg/kg
DENV2 D2Y98P = assay type: in vivo, AG129 mice
[5] = cynomolgus monkey plasma, 2 μM, 120 min, 37°C
[6] = human plasma, 2 μM, 120 min, 37°C
[7] = Sprague Dawley rat plasma, 10 min of incubation
[8] = set-up: dose or concentration left out as unconfirmed; conditions: rats, doses up to for 14 days; S. S. Good, unpublished data
[9] = monkeys, doses up to 1,000 mg/day for 14 days; S. S. Good, unpublished data
in vitro = conditions: Sprague Dawley, rat, plasma
[10] = target: human cellular DNA-dependent DNA polymerase α; conditions: read-out: estimated IC50; cited from earlier work
[11] = target: human cellular DNA-dependent DNA polymerase β; conditions: read-out: estimated IC50; cited from earlier work
[12] = target: human cellular DNA-dependent DNA polymerase γ; conditions: read-out: estimated IC50; cited from earlier work
[13] = tested on: human mitochondrial DNA-directed RNA polymerase (POLRMT); conditions: cited from earlier work
[14] = rats, single oral dose AT-281 300 mg/kg, 24 h
[15] = mice, single oral dose AT-281 50 mg/kg, 12 h, pooled from 3 animals
[16] = monkeys, single oral dose of AT-752 equivalent to 55 mg/kg AT-281, 12 h
DENV = tested on: DENV; set-up: method as in PMID 22807519; conditions: cited from earlier work
[17] = Cardiomyocyte assay (CellTiter Glo); assay type: cell-based; conditions: human iPS cardiomyocytes
[18] = male, cynomolgus, cynomolgus monkey, in vivo, po, 300 mg/kg

With `Nc1nc2c(ncn2[C@@H]2O[C@H](COP(=O)(O)OP(=O)(O)OP(=O)(O)O)C[C@H]2O)c(=O)[nH]1` [3′-dGTP, reference compound] the “effect on RNA synthesis after incorporation” value [1] was “equivalent profile”.

For `C[C@@]1(F)[C@H](O)[C@@H](CO)O[C@H]1n1cnc2c(=O)[nH]c(N)nc21` [AT-273, 2′-fluoro-2′-C-methyl guanosine], the “plasma AT-273 concentration” value (CD-1, mouse, in vivo) was 1.35 ± 0.86 nmol/mL, the “plasma AT-273 concentration” value (mice, AT-281 1,000 mg/kg loading then 500 mg/kg BID 3 days, 12 h after the first 500-mg/kg dose) was 0.67 ± 0.12 nmol/mL and the AUC(0-t) [2] was 18.8 ± 6 µM·h. For the same compound, the Cmax [2] was 2300 ± 700 nM, the AUC(0-t) [3, 18] was 7.8 ± 2.4 µM·h and the Cmax [3, 18] was 800 ± 200 nM. It also gave an AUC(0-t) [4] of 22.9 µM·h, a Cmax [4] of 1300 ± 300 nM and a Tmax [4] of 8 h.

For `CNc1nc(N)nc2c1ncn2[C@@H]1O[C@H](CO[P@](=O)(O)N[C@@H](C)C(=O)O)[C@@H](O)[C@@]1(C)F` [AT-551], the AUC(0-t) [2] was 58.7 ± 13.3 µM·h, the Cmax [2] was 45100 ± 12000 nM and the Tmax [2] was 0.5 h. The AUC(0-t) [3, 18] was 9.7 ± 2.2 µM·h, the Cmax [3, 18] was 2000 ± 800 nM and the Tmax [3, 18] was 2 h. The AUC(0-t) [4] was 56.5 µM·h and the Cmax [4] was 16500 ± 10800 nM.

With `CNc1nc(N)nc2c1ncn2[C@@H]1O[C@H](CO[P@](=O)(N[C@@H](C)C(=O)OC(C)C)Oc2ccccc2)[C@@H](O)[C@@]1(C)F` [AT-752] the “viremia vs vehicle, day 6 pi” value (DENV2 D2Y98P; AG129 mice, oral 1,000 mg/kg loading 4 h before challenge then 500 mg/kg BID 7 days, P = 0.000014) was “significantly lower”, the “viremia vs control, day 4 pi” value (DENV2 D2Y98P; same regimen) was “did not demonstrate a difference in viremia” and the “survival vs vehicle (Kaplan-Meier)” value (DENV2 D2Y98P; same regimen, P = 0.0004, Mantel-Cox log rank test) was “significantly improved the survival”. The “health scores vs vehicle” value (DENV2 D2Y98P; same regimen, day 4 to day 9 pi, P < 0.001) was “significantly better health scores”, the “weight loss vs vehicle” value (DENV2 D2Y98P; same regimen, days 5, 7 and 8 pi, P < 0.001) was “significantly reduced weight loss” and the “spleen viral load vs control by day 7 pi” value (DENV2 D2Y98P; same regimen, reduced compared to control) was “not statistically different”. For the same compound, the “viremia by day 8 pi” value (DENV2 D2Y98P; same regimen, virus still measurable in all surviving controls, P = 0.0045) was “cleared in all treated animals”, the “% of starting concentration remaining” value [5] was 98.2% and the “% of starting concentration remaining” value [6] was 93.5%. For the same compound, the “drug remaining at first time point” value [7] was “no drug remaining”, the safety findings [8] was “no safety concerns” and the safety findings [9] was “no safety concerns”. For the same compound, the half-life (in vitro) was under 3 min and the “unusual or adverse clinical signs after dosing” value ([3]; monkeys, oral AT-752 300 mg/kg or 60 mg/kg, observed before and after dosing and at blood collections) was “no such signs noted”.

With `C[C@@]1(F)[C@H](O)[C@@H](COP(=O)(O)OP(=O)(O)OP(=O)(O)O)O[C@H]1n1cnc2c(=O)[nH]c(N)nc21` [AT-9010] the “effect on RNA synthesis after incorporation” value [1] was “immediate chain termination of RNA synthesis”, the “discrimination factor (preference for GTP > AT-9010)” value ([1]; all four NTPs present, band product intensities at +5 and +7 positions) was 12.6 ± 4.3 and the “AT-9010 concentration in PBMCs” value (mice, 500 mg/kg AT-281 then 250 mg/kg 4 h later, 4 h after the second dose) was 0.297 pmol/10^6 cells. The IC50 [10] was over 100 µM, the IC50 [11] was over 100 µM and the IC50 [12] was over 100 µM. For the same compound, the “effect on mitochondrial integrity / inhibition of POLRMT” value [13] was “not likely to affect mitochondrial integrity or inhibit human mitochondrial DNA-directed RNA polymerase”, the “AT-9010 concentration in PBMCs” value [14] was 0.439 ± 0.218 pmol/10^6 cells and the “AT-9010 concentration in PBMCs” value [15] was 0.092 pmol/10^6 cells. For the same compound, the “AT-9010 concentration in PBMCs” value [16] was 0.070 ± 0.046 pmol/10^6 cells.

For `CC(C)C(=O)OC[C@@]1(N=[N+]=[N-])O[C@@H](n2ccc(N)nc2=O)[C@H](OC(=O)C(C)C)[C@@H]1OC(=O)C(C)C` [balapiravir], the “viremia in patients infected with DENV” value (DENV) is given as “failed to reduce viremia” and the “antiviral response, cytokine profile and time to fever clearance vs placebo” value (DENV; tested clinically) is given as “no differences between compound and placebo treatment were observed”.

For `COc1cc2nc(N3CCN(C(=O)C4COc5ccccc5O4)CC3)nc(N)c2cc1OC` (stereo not drawn) [doxazosin, reference compound], the CC50 at 3 days [17] was 7 µM.

— publication PMC8522752 (Antimicrobial Agents and Chemotherapy, 2021)
